± gives the standard deviation of the averaged measurements.
What was measured:
[1] = tested on: HSC2 (primary human Schwann cells); assay: drug sensitivity score (DSS, CellTox-Green cytotoxicity, 72 h) (DSS (dimensionless)); higher = more cytotoxic; extreme values may be limits of the assay
In short: (§1)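 MPNST cell lines and primary human Schwann cells were incubated 72 h at 37 °C in 384-well plates holding five 10-fold compound dilutions. CellTox-Green was added before seeding at a final 1:1000 dilution and reported fluorescence from DNA released by disrupted cells. Signals were scaled to vehicle and positive-control wells, and cultures failing plate quality control were dropped. Drug sensitivity score and relative IC50 come from four-parameter logistic fits, with IC50 censored at the top concentration.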

ST8814 [2] = assay: as above
In short: as §1

S1507-2 [3] = assay: as above
In short: as §1

[4] = tested on: HSC1 (primary human Schwann cells); assay: as above
In short: as §1

HS-PSS [5] = assay: as above
In short: as §1

STS26T [6] = assay: as above
In short: as §1

YST-1 [7] = assay: drug sensitivity score (DSS, CellTiter-Glo viability, 72 h) (DSS (dimensionless)); higher = more sensitive; extreme values may be limits of the assay
In short: (§2)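 MPNST cell lines and primary human Schwann cells (750–1000 cells per well) went into 384-well plates preprinted with each compound at five concentrations in 10-fold steps. Plates were incubated 72 h at 37 °C, 5% CO2. Viability was read as CellTiter-Glo ATP luminescence, scaled between vehicle and positive-control wells, with duplicates averaged where present. Percent inhibition is at the top concentration; drug sensitivity score and relative IC50 (censored at top concentration) come from four-parameter logistic fits.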

[8] = tested on: HSC2 (primary human Schwann cells); assay: as above
In short: as §2

ST8814 [9] = assay: as above
In short: as §2

HS-Sch-2 [10] = assay: as above
In short: as §2

S462 [11] = assay: as above
In short: as §2

S1507-2 [12] = assay: as above
In short: as §2

[13] = tested on: HSC1 (primary human Schwann cells); assay: as above
In short: as §2

HS-PSS [14] = assay: as above
In short: as §2

STS26T [15] = assay: as above
In short: as §2

YST-1 [16] = assay: % inhibition of CellTiter-Glo viability at highest tested concentration (72 h), relative to DMSO and benzethonium chloride controls; higher = more inhibition
In short: as §2

[17] = tested on: HSC2 (primary human Schwann cells); assay: as above
In short: as §2

ST8814 [18] = assay: as above
In short: as §2

HS-Sch-2 [19] = assay: as above
In short: as §2

S462 [20] = assay: as above
In short: as §2

S1507-2 [21] = assay: as above
In short: as §2

[22] = tested on: HSC1 (primary human Schwann cells); assay: as above
In short: as §2

HS-PSS [23] = assay: as above
In short: as §2

STS26T [24] = assay: as above
In short: as §2

Row | SMILES | drug sensitivity score [1] | drug sensitivity score (ST8814 [2]) | drug sensitivity score (S1507-2 [3]) | drug sensitivity score [4] | drug sensitivity score (HS-PSS [5]) | drug sensitivity score (STS26T [6]) | drug sensitivity score (YST-1 [7]) | drug sensitivity score [8] | drug sensitivity score (ST8814 [9]) | drug sensitivity score (HS-Sch-2 [10]) | drug sensitivity score (S462 [11]) | drug sensitivity score (S1507-2 [12]) | drug sensitivity score [13] | drug sensitivity score (HS-PSS [14]) | drug sensitivity score (STS26T [15]) | % inhibition (YST-1 [16]) | % inhibition [17] | % inhibition (ST8814 [18]) | % inhibition (HS-Sch-2 [19]) | % inhibition (S462 [20]) | % inhibition (S1507-2 [21]) | % inhibition [22] | % inhibition (HS-PSS [23]) | % inhibition (STS26T [24])
1 | O=C(Cc1ccc(-c2ccc(OCCN3CCOCC3)cc2)cn1)NCc1ccccc1 [KX2-391] (max concentration tested 10000 nM) | 13.8 | 30.1 | 18.5 ± 2.1 | 11.4 | 0 | 32.1 | 24 | 22.7 | 25.2 | 28.3 | 28.72 ± 0.17 | 22.6 ± 0.24 | 21.4 | 15.7 | 29.4 | 80.7% | 86.6% | 83.5% | 93.2% | 94.784 ± 0.091% | 75.8 ± 1.3% | 75.7% | 76.6% | 92.4%
2 | Cn1c(=O)c(F)c(Nc2ccc(I)cc2F)c2c(=O)n(C[C@@H](O)CO)cnc21 [TAK-733] (max concentration tested 1000 nM) | 0 | 5.1 | 2.13 ± 3 | 0 | 0 | 0.198 | 0.48 | 6.21 | 9.73 | 5.75 | 10.3 ± 0.6 | 7.362 ± 0.071 | 6.66 | 4.36 | 6.24 | 14.2% | 56.7% | 83.7% | 63% | 76.5 ± 2.8% | 64.6 ± 1.8% | 60.4% | 48.9% | 40.6%
3 | Nc1nc(OCc2cc(Br)cs2)c2[nH]cnc2n1 [Lomeguatrib] (max concentration tested 10000 nM) | 0 | 0 | 0 | 0 | 0 | 0 | 0 | 0 | 0 | 0 | 0 | 0 | 0 | 0.77 | 0 | -1.6% | -5.93% | -0.939% | -6.3% | -14 ± 0.99% | -7.24 ± 3.2% | -5.66% | 15.1% | -6.97%
4 | C[C@H]1C[C@@H]2[C@H]([C@@H](O)C[C@@]3(C)[C@H]2CC[C@]3(O)C(=O)CO)[C@@]2(C)C=CC(=O)C=C12 [Methylprednisolone] (max concentration tested 10000 nM) | 0 | 0 | 0 | 0 | 0 | 0 | 0.96 | 0 | 4.82 | 0.61 | 0 | 3.26 ± 4.4 | 0 | 0 | 0 | 19.3% | 3.94% | 22.4% | 7.62% | 4.77 ± 4.3% | 17.3 ± 7% | 7.99% | 3.22% | 4.35%
5 | CC(C)(C#N)c1cc(Cn2cncn2)cc(C(C)(C)C#N)c1 [Anastrozole] (max concentration tested 10000 nM) | 0 | 0 | 0 | 0 | 0 | 0 | 0 | 0 | 0 | 0 | 0 | 0 | 0 | 0 | 0 | 6.26% | -11% | -7.93% | -11.4% | -13.3 ± 6.7% | -9.3 ± 9.7% | -2.19% | -11.6% | -1.93%
6 | CNC(=O)c1ccccc1Sc1ccc2c(/C=C/c3ccccn3)n[nH]c2c1 [Axitinib] (max concentration tested 10000 nM) | 0.0899 | 0.581 | 1.12 ± 1.1 | 1.46 | 0 | 6.29 | 4.01 | 6.51 | 5.17 | 6.01 | 6.12 ± 0.37 | 4.27 ± 3.4 | 7.23 | 2.26 | 5.81 | 39.9% | 53.8% | 52.7% | 67.8% | 52.1 ± 6.1% | 38.5 ± 19% | 66.9% | 38% | 61.1%
7 | Nc1nc(NC2CC2)cc(-c2cccc(Cl)c2Cl)n1 [TH588] (max concentration tested 25000 nM) | 4.06 | 7.43 | 5.61 | 4.29 | 0 | 9.84 | 7.77 | 5.92 | 9.42 | 7.91 | 6.18 | 6.86 | 4.07 | 3.03 | 9.6 | 79.4% | 67% | 100% | 87.8% | 98.2% | 78.2% | 55% | 35.1% | 102%
8 | O=C(Nc1cccnc1)N1CCC(Cc2cccc(Oc3ccc(C(F)(F)F)cn3)c2)CC1 [PF-3845] (max concentration tested 10000 nM) | 0.053 | 0 | 0 | 0 | 0 | 0 | 0.86 | 3.19 | 0.0881 | 4.52 | 0.985 ± 0.1 | 0 | 2.77 | 7.9 | 1.18 | 25.5% | 35.3% | 11.5% | 79% | 20.3 ± 0.84% | 2.03 ± 3.1% | 33.5% | 79.6% | 24.2%
9 | CCC1=C[C@@H]2CN(C1)Cc1c([nH]c3ccccc13)[C@@](C(=O)OC)(c1cc3c(cc1OC)N(C)[C@H]1[C@@](O)(C(=O)OC)[C@H](OC(C)=O)[C@]4(CC)C=CCN5CC[C@]31[C@@H]54)C2 [Vinorelbine] (max concentration tested 10000 nM) | 13.5 | 19.7 | 19.2 ± 3.6 | 12.5 | 2.69 | 34.4 | 40.2 | 20.8 | 20.6 | 40.6 | 30.2 ± 0.41 | 19.1 ± 0.81 | 16.7 | 24.6 | 31.9 | 94.3% | 88.8% | 94.7% | 98.5% | 99.19 ± 0.43% | 80.4 ± 4.8% | 78.9% | 80.5% | 94.5%
10 | Nc1cccc2c1CN(C1CCC(=O)NC1=O)C2=O (stereo unspecified) [Lenalidomide] (max concentration tested 10000 nM) | 2.65 | 0 | 0 | 0 |  | 0 |  | 0.0019 | 0 |  | 0 | 1.35 ± 1.9 | 0.47 |  | 0 |  | 11% | 3.01% |  | 2.04 ± 9.8% | 10.8 ± 9.4% | 9.28% |  | 0.527%
11 | Cc1ccc([N+](=O)[O-])cc1S(=O)(=O)N(C)/N=C/c1cnc2ccc(Br)cn12 [PIK-75] (max concentration tested 10000 nM) | 9.74 | 5.5 | 8.99 ± 6.5 | 7.46 |  | 14.6 |  | 21.1 | 17.7 |  | 21.2 ± 0.91 | 17.9 ± 1.9 | 19.7 |  | 22.3 |  | 95.4% | 89.1% |  | 101.9 ± 0.78% | 97.021 ± 0.018% | 91.1% |  | 102%
12 | CCN(CC)CCCC(C)Nc1ccnc2cc(Cl)ccc12 (stereo unspecified) [Chloroquine aq] (max concentration tested 100000 nM) | 8.02 | 18.6 | 18.3 ± 0.29 | 9.24 |  | 15.1 |  | 9.45 | 17.4 |  | 13 ± 1.7 | 20.19 ± 0.053 | 9.99 |  | 14.5 |  | 94.5% | 96.1% |  | 95.68 ± 0.34% | 95.13 ± 0.85% | 94.7% |  | 96.2%
13 | CCCCCCCCCCCCCCCCCCOP(=O)([O-])OC1CC[N+](C)(C)CC1 [Perifosine aq/PBS] (max concentration tested 2500 nM) | 0 | 0.404 | 0 | 0 |  | 0.96 |  | 0 | 1.66 |  | 0.0036 ± 0.0051 | 0 | 0 |  | 1.96 |  | 7.97% | 23.6% |  | 9.85 ± 1.6% | 1.67 ± 4.5% | 9.06% |  | 32.7%
14 | COc1ncc(-c2ccc3nccc(-c4ccnnc4)c3c2)cc1NS(=O)(=O)c1ccc(F)cc1F (max concentration tested 1000 nM) | 0 | 4 | 0.225 ± 0.23 | 0 |  | 0.0475 |  | 15.8 | 12.8 |  | 10.1 ± 1.8 | 14 ± 0.98 | 16.1 |  | 16.6 |  | 84.1% | 90% |  | 75.23 ± 0.42% | 72.9 ± 5.3% | 84.4% |  | 83.4%

Reference: the supplement of paper PMC5579334
